For 14 compounds, IC50 results are on record in patent US20240116985A1, “STAPLED PEPTIDES AND METHODS THEREOF” (priority 2020, published 2024).

SMILES strings stand for the structures.

This assay deals with T1, full-length beta-Catenin (Uniprot ID P35222) (Homo sapiens, UniProt P35222).
T1 construct: 10 nM full-length beta-Catenin (Uniprot ID P35222)
T1 sequence (P35222 1-781): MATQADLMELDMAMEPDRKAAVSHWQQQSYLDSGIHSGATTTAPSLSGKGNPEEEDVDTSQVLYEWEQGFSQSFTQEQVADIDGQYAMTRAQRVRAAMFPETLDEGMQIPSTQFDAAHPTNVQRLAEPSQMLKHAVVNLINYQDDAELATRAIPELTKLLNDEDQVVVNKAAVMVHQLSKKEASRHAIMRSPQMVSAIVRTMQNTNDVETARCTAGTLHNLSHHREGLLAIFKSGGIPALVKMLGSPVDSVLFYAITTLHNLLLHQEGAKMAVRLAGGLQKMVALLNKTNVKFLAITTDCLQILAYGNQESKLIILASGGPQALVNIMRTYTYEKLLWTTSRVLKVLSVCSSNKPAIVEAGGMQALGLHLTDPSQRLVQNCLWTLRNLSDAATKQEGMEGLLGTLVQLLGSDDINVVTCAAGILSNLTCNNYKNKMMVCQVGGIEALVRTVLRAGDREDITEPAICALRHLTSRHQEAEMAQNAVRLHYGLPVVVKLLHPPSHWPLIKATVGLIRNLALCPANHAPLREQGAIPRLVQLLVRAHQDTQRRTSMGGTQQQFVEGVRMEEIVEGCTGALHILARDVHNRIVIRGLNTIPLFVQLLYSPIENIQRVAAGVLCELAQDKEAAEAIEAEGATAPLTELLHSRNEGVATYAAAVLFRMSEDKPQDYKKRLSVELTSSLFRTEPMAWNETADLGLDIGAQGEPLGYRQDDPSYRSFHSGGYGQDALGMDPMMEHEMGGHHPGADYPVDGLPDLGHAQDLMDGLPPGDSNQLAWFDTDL
Description: Fluorescence polarization IC50 (beta-catenin / 5FAM-TCF4 10-53 competition). The format is binding. The following applies: fluorescence polarization; read-out: beta-Catenin FP IC50. (Polarisation of emitted light reports the rotation of a fluorescent probe.)

Regarding `CC(=O)N(CC(=O)O)C[C@@H]1NC(=O)[C@H](CC(=O)O)NC(=O)C2(CCCC=CCCCOC(=O)N3CC[C@@](C(=O)N[C@@H](Cc4ccsc4)C(=O)N[C@@H](Cc4csc5ccccc45)C(=O)N[C@@H](CCC(N)=O)C(N)=O)(C3)NC(=O)[C@H](CC(C)C)NC(=O)[C@H](Cc3ccccc3)NC(=O)[C@H](C)NC(=O)[C@H](C)NC1=O)CCCC=CC[C@]1(CCCN1C(C)=O)C(=O)N[C@@H](CC(=O)O)C(=O)N[C@@H](CC(C)(C)C)C(=O)N2` (stereo partly drawn) [I-1729, Ac-PL3-Asp-Npg-B5-Asp-[Ac]GA-Ala-Ala-Phe-Leu-PyrS2-3Thi-BztA-Gln-NH2], the IC50 (in general, the concentration that inhibits the measured activity by half) worked out at 9 nM.
In the case of `CC(=O)N1CCC[C@]12CC=CCCCC1(CCCC=CCCCOC(=O)N3CC[C@@](C(=O)N[C@@H](Cc4ccsc4)C(=O)N[C@@H](Cc4csc5ccccc45)C(=O)N[C@@H](CCC(N)=O)C(N)=O)(C3)NC(=O)[C@H](CC(C)C)NC(=O)[C@H](Cc3ccccc3)NC(=O)[C@H](C)NC(=O)[C@H](C)NC(=O)[C@H](CN(CC(=O)O)C(=O)C(F)(F)F)NC(=O)[C@H](CC(=O)O)NC1=O)NC(=O)[C@H](CC(C)(C)C)NC(=O)[C@H](CC(=O)O)NC2=O` (stereo partly drawn) [I-1730, Ac-PL3-Asp-Npg-B5-Asp-[CF3CO]GA-Ala-Ala-Phe-Leu-PyrS2-3Thi-BztA-Gln-NH2], the IC50 stood at 38 nM.
For the compound `CC(=O)N1CCC[C@]12CC=CCCCC1(CCCC=CCCCOC(=O)N3CC[C@@](C(=O)N[C@@H](Cc4ccccc4)C(=O)N[C@@H](Cc4csc5ccccc45)C(=O)N[C@@H](CCC(N)=O)C(N)=O)(C3)NC(=O)[C@H](CC(N)=O)NC(=O)[C@H](Cc3ccccc3)NC(=O)[C@H](C)NC(=O)[C@H](C)NC(=O)[C@H]([C@@H](C)O)NC(=O)[C@H](CC(N)=O)NC1=O)NC(=O)[C@H](CC(C)(C)C)NC(=O)[C@H](CC(=O)O)NC2=O` (stereo partly drawn) [I-1735, Ac-PL3-Asp-Npg-B5-Asn-Thr-Ala-Ala-Phe-Asn-PyrS2-Phe-BztA-Gln-NH2], the IC50 is 667 nM.
As for `CC(=O)N1CCC[C@]12CC=CCCCC1(CCCC=CCCCOC(=O)N3CC[C@@](C(=O)N[C@@H](Cc4cccs4)C(=O)N[C@@H](Cc4csc5ccccc45)C(=O)N[C@@H](CCC(N)=O)C(N)=O)(C3)NC(=O)[C@H](CC(N)=O)NC(=O)[C@H](Cc3ccccc3)NC(=O)[C@H](C)NC(=O)[C@H](C)NC(=O)[C@H]([C@@H](C)O)NC(=O)[C@H](CC(N)=O)NC1=O)NC(=O)[C@H](CC(C)(C)C)NC(=O)[C@H](CC(=O)O)NC2=O` (stereo partly drawn) [I-1736, Ac-PL3-Asp-Npg-B5-Asn-Thr-Ala-Ala-Phe-Asn-PyrS2-2Thi-BztA-Gln-NH2], the IC50 was 458 nM.
Turning to `CC(=O)N1CCC[C@]12CC=CCCCC1(CCCC=CCCCOC(=O)N3CC[C@@](C(=O)N[C@@H](Cc4ccccc4C)C(=O)N[C@@H](Cc4csc5ccccc45)C(=O)N[C@@H](CCC(N)=O)C(N)=O)(C3)NC(=O)[C@H](CC(N)=O)NC(=O)[C@H](Cc3ccccc3)NC(=O)[C@H](C)NC(=O)[C@H](C)NC(=O)[C@H]([C@@H](C)O)NC(=O)[C@H](CC(N)=O)NC1=O)NC(=O)[C@H](CC(C)(C)C)NC(=O)[C@H](CC(=O)O)NC2=O` (stereo partly drawn) [I-1737, Ac-PL3-Asp-Npg-B5-Asn-Thr-Ala-Ala-Phe-Asn-PyrS2-2MeF-BztA-Gln-NH2], the IC50 was determined as 518 nM.
Take `CC(=O)N1CCC[C@]12CC=CCCCC1(CCCC=CCCCOC(=O)N3CC[C@@](C(=O)N[C@@H](Cc4ccccc4C(F)(F)F)C(=O)N[C@@H](Cc4csc5ccccc45)C(=O)N[C@@H](CCC(N)=O)C(N)=O)(C3)NC(=O)[C@H](CC(N)=O)NC(=O)[C@H](Cc3ccccc3)NC(=O)[C@H](C)NC(=O)[C@H](C)NC(=O)[C@H]([C@@H](C)O)NC(=O)[C@H](CC(N)=O)NC1=O)NC(=O)[C@H](CC(C)(C)C)NC(=O)[C@H](CC(=O)O)NC2=O` (stereo partly drawn) [I-1738, Ac-PL3-Asp-Npg-B5-Asn-Thr-Ala-Ala-Phe-Asn-PyrS2-2F3MeF-BztA-Gln-NH2]: the IC50 was 1060 nM.
Regarding `CC(=O)N1CCC[C@]12CC=CCCCC1(CCCC=CCCCOC(=O)N3CC[C@@](C(=O)N[C@@H](Cc4cccc(C)c4)C(=O)N[C@@H](Cc4csc5ccccc45)C(=O)N[C@@H](CCC(N)=O)C(N)=O)(C3)NC(=O)[C@H](CC(N)=O)NC(=O)[C@H](Cc3ccccc3)NC(=O)[C@H](C)NC(=O)[C@H](C)NC(=O)[C@H]([C@@H](C)O)NC(=O)[C@H](CC(N)=O)NC1=O)NC(=O)[C@H](CC(C)(C)C)NC(=O)[C@H](CC(=O)O)NC2=O` (stereo partly drawn) [I-1739, Ac-PL3-Asp-Npg-B5-Asn-Thr-Ala-Ala-Phe-Asn-PyrS2-3MeF-BztA-Gln-NH2], the IC50 was determined as 3650 nM.
Under `CC(=O)N1CCC[C@]12CC=CCCCC1(CCCC=CCCCOC(=O)N3CC[C@@](C(=O)N[C@@H](Cc4ccsc4)C(=O)N[C@@H](Cc4csc5ccccc45)C(=O)N[C@@H](CCC(N)=O)C(N)=O)(C3)NC(=O)[C@H](Cc3c[nH]c4ccccc34)NC(=O)[C@H](Cc3ccccc3)NC(=O)[C@H](C)NC(=O)[C@H](C)NC(=O)[C@H]([C@@H](C)O)NC(=O)[C@H](CC(N)=O)NC1=O)NC(=O)[C@H](CC(C)(C)C)NC(=O)[C@H](CC(=O)O)NC2=O` (stereo partly drawn) [I-1741, Ac-PL3-Asp-Npg-B5-Asn-Thr-Ala-Ala-Phe-Trp-PyrS2-3Thi-BztA-Gln-NH2] stands 4390 nM; under `CC(=O)N1CCC[C@]12CC=CCCCC1(CCCC=CCCCOC(=O)N3CC[C@@](C(=O)N[C@@H](Cc4ccsc4)C(=O)N[C@@H](Cc4csc5ccccc45)C(N)=O)(C3)NC(=O)[C@H](CC(N)=O)NC(=O)[C@H](Cc3ccccc3)NC(=O)[C@H](C)NC(=O)[C@H](C)NC(=O)[C@H]([C@@H](C)O)NC(=O)[C@H](CC(N)=O)NC1=O)NC(=O)[C@H](CC(C)(C)C)NC(=O)[C@H](CC(=O)O)NC2=O` (stereo partly drawn) [I-1742, Ac-PL3-Asp-Npg-B5-Asn-Thr-Ala-Ala-Phe-Asn-PyrS2-3Thi-BztA-NH2], 867 nM.
Under `CC(=O)N1CCC[C@]12CC=CCCCC1(CCCC=CCCCOC(=O)N3CC[C@@](C(=O)N[C@@H](Cc4ccsc4)C(=O)N[C@@H](Cc4csc5ccccc45)C(=O)N[C@@H](CCCNC(=N)N)C(N)=O)(C3)NC(=O)[C@H](CC(N)=O)NC(=O)[C@H](Cc3ccccc3)NC(=O)[C@H](C)NC(=O)[C@H](C)NC(=O)[C@H]([C@@H](C)O)NC(=O)[C@H](CC(N)=O)NC1=O)NC(=O)[C@H](CC(C)(C)C)NC(=O)[C@H](CC(=O)O)NC2=O` (stereo partly drawn) [I-1743, Ac-PL3-Asp-Npg-B5-Asn-Thr-Ala-Ala-Phe-Asn-PyrS2-3Thi-BztA-Arg-NH2] stands 469 nM; under `CC(=O)N1CCC[C@]12CC=CCCCC1(CCCC=CCCCOC(=O)N3CC[C@@](C(=O)N[C@@H](Cc4ccsc4)C(=O)N[C@@H](Cc4csc5ccccc45)C(=O)N[C@@H](Cc4ccccc4)C(N)=O)(C3)NC(=O)[C@H](CC(N)=O)NC(=O)[C@H](Cc3ccccc3)NC(=O)[C@H](C)NC(=O)[C@H](C)NC(=O)[C@H]([C@@H](C)O)NC(=O)[C@H](CC(N)=O)NC1=O)NC(=O)[C@H](CC(C)(C)C)NC(=O)[C@H](CC(=O)O)NC2=O` (stereo partly drawn) [I-1744, Ac-PL3-Asp-Npg-B5-Asn-Thr-Ala-Ala-Phe-Asn-PyrS2-3Thi-BztA-Phe-NH2], 363 nM; under `CC(=O)N1CCC[C@]12CC=CCCCC1(CCCC=CCCCOC(=O)N3CC[C@@](C(=O)N[C@@H](Cc4ccsc4)C(=O)N[C@@H](Cc4csc5ccccc45)C(=O)N[C@H](C(N)=O)[C@@H](C)O)(C3)NC(=O)[C@H](CC(N)=O)NC(=O)[C@H](Cc3ccccc3)NC(=O)[C@H](C)NC(=O)[C@H](C)NC(=O)[C@H]([C@@H](C)O)NC(=O)[C@H](CC(N)=O)NC1=O)NC(=O)[C@H](CC(C)(C)C)NC(=O)[C@H](CC(=O)O)NC2=O` (stereo partly drawn) [I-1745, Ac-PL3-Asp-Npg-B5-Asn-Thr-Ala-Ala-Phe-Asn-PyrS2-3Thi-BztA-Thr-NH2], 402 nM.
`CC(=O)N1CCC[C@]12CC=CCCCC1(CCCC=CCCCOC(=O)N3CC[C@@](C(=O)N[C@@H](Cc4ccsc4)C(=O)N[C@@H](Cc4csc5ccccc45)C(=O)N[C@@H](CC(N)=O)C(N)=O)(C3)NC(=O)[C@H](CC(N)=O)NC(=O)[C@H](Cc3ccccc3)NC(=O)[C@H](C)NC(=O)[C@H](C)NC(=O)[C@H]([C@@H](C)O)NC(=O)[C@H](CC(N)=O)NC1=O)NC(=O)[C@H](CC(C)(C)C)NC(=O)[C@H](CC(=O)O)NC2=O` (stereo partly drawn) [I-1746, Ac-PL3-Asp-Npg-B5-Asn-Thr-Ala-Ala-Phe-Asn-PyrS2-3Thi-BztA-Asn-NH2]: the concentration for half-maximal inhibition (IC50) was 235 nM.
On to `CC(=O)N1CCC[C@]12CC=CCCCC1(CCCC=CCCCOC(=O)N3CC[C@@](C(=O)N[C@@H](Cc4ccsc4)C(=O)N[C@@H](Cc4csc5ccccc45)C(=O)N[C@@H](Cc4ccccc4)C(N)=O)(C3)NC(=O)[C@H](CC(C)C)NC(=O)[C@H](Cc3ccccc3)NC(=O)[C@H](C)NC(=O)[C@H](C)NC(=O)[C@H](CN(CC(=O)O)CC(F)(F)F)NC(=O)[C@H](CC(=O)O)NC1=O)NC(=O)[C@H](CC(C)(C)C)NC(=O)[C@H](CC(=O)O)NC2=O` (stereo partly drawn) [I-1749, Ac-PL3-Asp-Npg-B5-Asp-TfeGA-Ala-Ala-Phe-Leu-PyrS2-3Thi-BztA-Phe-NH2], for which the IC50 was determined as 145 nM.
